Results taken from PMC5486078, “Molecular Cloning and Functional Characterization of a Hexokinase from the Oriental River Prawn Macrobrachium nipponense in Response to Hypoxia” (International Journal of Molecular Sciences, 2017).
Like-named read-outs stand apart in the source and are kept apart here.

Columns and labels:
[1] = target: T1, rMnHK (recombinant M. nipponense hexokinase) (Macrobrachium nipponense, UniProt A0A220NLA7); assay: enzyme inhibition, Lineweaver-Burk plot; assay type: biochemical
T1 construct: pET-28a, His tag, E. coli BL21 (DE3); about 70 kDa on SDS-PAGE
T1 sequence (A0A220NLA7 1-449): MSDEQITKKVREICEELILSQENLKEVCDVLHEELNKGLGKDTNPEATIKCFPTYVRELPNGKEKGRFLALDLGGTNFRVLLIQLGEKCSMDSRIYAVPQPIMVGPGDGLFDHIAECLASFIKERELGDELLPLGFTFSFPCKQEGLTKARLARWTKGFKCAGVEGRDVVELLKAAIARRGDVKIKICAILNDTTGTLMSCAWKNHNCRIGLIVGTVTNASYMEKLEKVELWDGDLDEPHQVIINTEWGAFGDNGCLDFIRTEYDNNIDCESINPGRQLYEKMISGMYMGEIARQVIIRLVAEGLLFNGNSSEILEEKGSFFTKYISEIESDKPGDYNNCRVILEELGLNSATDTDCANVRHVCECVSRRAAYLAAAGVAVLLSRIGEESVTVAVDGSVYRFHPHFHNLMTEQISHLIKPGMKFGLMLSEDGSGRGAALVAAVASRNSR
Excerpt: enzyme inhibition, Lineweaver-Burk plot on rMnHK (recombinant M. nipponense hexokinase)

[2] = substrate: Nc1ncnc2c1ncn2[C@@H]1O[C@H](COP(=O)(O)OP(=O)(O)OP(=O)(O)O)[C@@H](O)[C@H]1O; assay: steady-state kinetics, Michaelis-Menten / Lineweaver-Burk plot; assay type: biochemical, Macrobrachium nipponense; details: co-substrate hexose; assay pH and temperature not stated

Nc1ncnc2c1ncn2[C@@H]1O[C@H](COP(=O)(O)OP(=O)(O)O)[C@@H](O)[C@H]1O [ADP]
Ki ([1]; read-out: Inhibitor Studies (Ki) (mM) / ADP): 0.76 mM

O=P(O)(O)OP(=O)(O)O [PPi]
Ki ([1]; read-out: Inhibitor Studies (Ki) (mM) / PPi): 0.011 mM

B1: rMnHK (recombinant M. nipponense hexokinase) (Macrobrachium nipponense) (protein)
chain: T1 sequence (A0A220NLA7 1-449)
notes: pET-28a, His tag, E. coli BL21 (DE3); about 70 kDa on SDS-PAGE
Km [2]: 880 ± 600 µM
